Results reported in the supplement of paper PMC11208160.

Assay: recombinant UMI read abundance after kanamycin selection (control-corrected) (log10(CPM+1)); higher = more efficient recombination; extreme values may be limits of the assay; sequences stand for … in AGTGCAGAGAAAATCGGCCAGTTTTCTCTGCCTGCAGTCCGCATGCCGTGGGACCCCTTGGGTTCTAACCTGTTGCCTAGATTTATGCAGCGGACTGCCTTTCTCCCAAAGTGATAAACCGG…AGGTTGGTTTCACT; site = the 11-nt donor
Experimental: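 Pooled E. coli donor-specificity screen for the IS621 bridge recombinase. Each library member carries a reprogrammed 11-nt donor and a full-length LE bridge RNA expressed in cis from the natural promoter, with a paired donor-binding loop (8-nt LDG + 4-nt RDG) and a target-binding loop fixed to T5. It is co-electroporated with a T5 target plasmid; recombinase is induced with 0.07 mM IPTG and recombinants are selected on kanamycin. UMIs are counted as CPM, averaged over two biological replicates and corrected by the unselected control. Molecule = full bridge RNA written as DNA, built from the T5 scaffold: LDG = donor specificity nt 1-8, RDG = reverse complement of nt 8-11.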
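Also: IS621 bridge recombinase in Escherichia coli cells against a fixed T5 target plasmid.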

Going from “ACATCTGCATGGACCGGTTTTCCCGGTAATCCGTATTTGTG (site ACATCTTCTCA)” to “ACATGAACATGGACCGGTTTTCCCGGTAATCCGTATTTGAG (site ACATGAACTCT)”, the “recombinant UMI read abundance (log10)” value rises from 0.5 to 2.07.

“ACATGAACATGGACCGGTTTTCCCGGTAATCCGTATTTGTC (site ACAAGAACTGA)” and “ACATGAACATGGACCGGTTTTCCCGGTAATCCGTATTTGTC (site ACACGAACTGA)” are within 0.2 log units of each other in “recombinant UMI read abundance (log10)” value: 0 for the first, 0.197 for the second.

First: ACATGAACATGGACCGGTTTTCCCGGTAATCCGTATTTGTC (site ACAGGAACTGA)
Second: ACATGAACATGGACCGGTTTTCCCGGTAATCCGTATTTGTC (site ACATGAACTGA)
The “recombinant UMI read abundance (log10)” value of the first is lower: 0 for the first, 1.57 for the second.

First: ACATGACCATGGACCGGTTTTCCCGGTAATCCGTATTTGCC (site ACATGACCTGG)
Second: ACATGCGCATGGACCGGTTTTCCCGGTAATCCGTATTTGCA (site ACATGCGCTTG)
The “recombinant UMI read abundance (log10)” value of the first is lower: 0 for the first, 2.86 for the second.

“ACATGTACATGGACCGGTTTTCCCGGTAATCCGTATTTGGT (site ACATGTACTAC)” and “ACATTCTCATGGACCGGTTTTCCCGGTAATCCGTATTTGCC (site ACATTCTCTGG)” are within 0.2 log units of each other in “recombinant UMI read abundance (log10)” value: 1.73 for the first, 1.63 for the second.

First: ACATTGACATGGACCGGTTTTCCCGGTAATCCGTATTTGAA (site ACATTGACTTT)
Second: ACATTTACATGGACCGGTTTTCCCGGTAATCCGTATTTGTG (site ACATATACTCA)
The “recombinant UMI read abundance (log10)” value of the first is higher: 1.76 for the first, 0.00866 for the second.

“ACATTTACATGGACCGGTTTTCCCGGTAATCCGTATTTGTG (site ACATCTACTCA)” and “ACATTTACATGGACCGGTTTTCCCGGTAATCCGTATTTGTG (site ACATGTACTCA)” are within 0.2 log units of each other in “recombinant UMI read abundance (log10)” value: 0.162 for the first, 0.287 for the second.

First: ACATTTACATGGACCGGTTTTCCCGGTAATCCGTATTTGTG (site ACATTTACTCA)
Second: ACCAACTCATGGACCGGTTTTCCCGGTAATCCGTATTTGCC (site ACCAACTCTGG)
The “recombinant UMI read abundance (log10)” value of the first is lower: 0.706 for the first, 1.81 for the second.

“ACCACGCCATGGACCGGTTTTCCCGGTAATCCGTATTTGTA (site ACCACGCCTTA)” and “ACCACGCCATGGACCGGTTTTCCCGGTAATCCGTATTTGTA (site CCCACGCCTTA)” are within 0.2 log units of each other in “recombinant UMI read abundance (log10)” value: 0.0245 for the first, 0.143 for the second.

“ACCACGCCATGGACCGGTTTTCCCGGTAATCCGTATTTGTA (site GCCACGCCTTA)” and “ACCACGCCATGGACCGGTTTTCCCGGTAATCCGTATTTGTA (site TCCACGCCTTA)” are within 0.2 log units of each other in “recombinant UMI read abundance (log10)” value: 0.00875 for the first, 0.0133 for the second.

First: ACCAGCTCATGGACCGGTTTTCCCGGTAATCCGTATTTGCT (site ACCAGCTCTAG)
Second: ACCAGGTCATGGACCGGTTTTCCCGGTAATCCGTATTTGTA (site ACCAGGTCTTA)
The “recombinant UMI read abundance (log10)” value of the first is lower: 2.25 for the first, 2.54 for the second.

First: ACCATATCATGGACCGGTTTTCCCGGTAATCCGTATTTGCA (site ACAGTATCTTG)
Second: ACCATATCATGGACCGGTTTTCCCGGTAATCCGTATTTGCA (site ACCATATCTTG)
The “recombinant UMI read abundance (log10)” value of the first is lower: 0.937 for the first, 2.3 for the second.

Compared with “ACCCATCCATGGACCGGTTTTCCCGGTAATCCGTATTTGAC (site ACACATCCTGT)”, “ACCCATCCATGGACCGGTTTTCCCGGTAATCCGTATTTGAC (site ACCCATCCTGT)” is higher in “recombinant UMI read abundance (log10)” value: 0.0114 for the first, 0.806 for the second.

“ACCCATCCATGGACCGGTTTTCCCGGTAATCCGTATTTGAC (site ACGCATCCTGT)” and “ACCCATCCATGGACCGGTTTTCCCGGTAATCCGTATTTGAC (site ACTCATCCTGT)” are the same in “recombinant UMI read abundance (log10)” value: 0 for the first, 0 for the second.

“ACCCCAACATGGACCGGTTTTCCCGGTAATCCGTATTTGTA (site ACCCCAACTTA)” and “ACCCGATCATGGACCGGTTTTCCCGGTAATCCGTATTTGAT (site ACCCGATCTAT)” are within 0.2 log units of each other in “recombinant UMI read abundance (log10)” value: 1.68 for the first, 1.53 for the second.

Compared with “ACCCGCTCATGGACCGGTTTTCCCGGTAATCCGTATTTGTC (site ACCCGCTCTGA)”, “ACCCGGGCATGGACCGGTTTTCCCGGTAATCCGTATTTGAC (site ACCCGGGCTGT)” is lower in “recombinant UMI read abundance (log10)” value: 2.76 for the first, 2.02 for the second.
